Assay results taken from ChEMBL document CHEMBL5260795, “Antifungal potential of marine natural products” (Eur J Med Chem, 2017).
Values after ≈ are worked out from the molar mass of the structure shown. Each block holds one compound with its values, some of them ahead of it. Where a SMILES comes first, the peptide text is derived from it. [ ]: non-standard residue; d: D form. The star is where a group is joined. Tridecanoyl(3R-OH,11-Me) = CCC(C)CCCCCCC[C@@H](O)CC(=O)*; X1 = CCC(C)CC(C)CCCCC[C@@H](O)CC(=O)*; X3 = CCC(C)CCCCCCCC[C@@H](O)CC(=O)*

What was measured:
[1] = tested on: Saccharomyces cerevisiae; test: Antifungal activity against Saccharomyces cerevisiae; assay type: functional
[2] = tested on: Rhizoctonia solani; test: Antifungal activity against Rhizoctonia solani incubated for 48 hrs by standard broth dilution method; assay type: functional
[3] = tested on: Phytophthora capsici; test: Antifungal activity against Phytophthora capsici incubated for 48 hrs by standard broth dilution method; assay type: functional
[4] = tested on: Colletotrichum acutatum; test: Antifungal activity against Colletotrichum acutatum incubated for 48 hrs by standard broth dilution method; assay type: functional
[5] = tested on: Botrytis cinerea; test: Antifungal activity against Botrytis cinerea incubated for 48 hrs by standard broth dilution method; assay type: functional
[6] = tested on: Gaeumannomyces graminis; test: Antimicrobial activity against Gaeumannomyces graminis; assay type: functional
[7] = tested on: Candida albicans; test: Antimicrobial activity against Candida albicans assessed as reduction of microbial microbial growth; assay type: functional
[8] = tested on: Candida albicans; test: Antifungal activity against Candida albicans; assay type: functional, organism-based
[9] = tested on: Rhizoctonia solani; test: Antifungal activity against Rhizoctonia solani; assay type: functional
[10] = tested on: Botrytis cinerea; test: Antifungal activity against Botrytis cinerea; assay type: functional
[11] = tested on: Rhizoctonia solani; test: Antimicrobial activity against Rhizoctonia solani incubated for 72 hrs by standard broth dilution method; assay type: functional
[12] = tested on: Aspergillus niger; test: Antimicrobial activity against Aspergillus niger incubated for 72 hrs by standard broth dilution method; assay type: functional
[13] = tested on: Colletotrichum acutatum; test: Antimicrobial activity against Colletotrichum acutatum incubated for 72 hrs by standard broth dilution method; assay type: functional
[14] = tested on: Botrytis cinerea; test: Antimicrobial activity against Botrytis cinerea incubated for 72 hrs by standard broth dilution method; assay type: functional
[15] = tested on: Candida albicans; test: Antimicrobial activity against Candida albicans incubated for 72 hrs by standard broth dilution method; assay type: functional
[16] = tested on: Saccharomyces cerevisiae; test: Antimicrobial activity against Saccharomyces cerevisiae incubated for 72 hrs by standard broth dilution method; assay type: functional
[17] = tested on: Candida albicans; test: Antifungal activity against wild type Candida albicans; assay type: functional, organism-based

SMILES: CCC(C)CCCCCCCC[C@@H](O)CC(=O)N[C@@H](CCC(=O)OC)C(=O)N[C@@H](CC(C)C)C(=O)N[C@@H](CC(C)C)C(=O)N[C@@H](CC(C)C)C(=O)O (some centres undefined) (X3-E(OMe)LLL-OH)
MIC [2]: 0.01 µg/mL (≈ 0.0135 µM) | MIC [3]: 0.01 µg/mL (≈ 0.0135 µM) | MIC [4]: 0.01 µg/mL (≈ 0.0135 µM) | MIC [5]: 0.01 µg/mL (≈ 0.0135 µM)

SMILES: CCC(C)CCCCCCC[C@@H](O)CC(=O)N[C@@H](CCC(=O)O)C(=O)N[C@@H](CC(C)C)C(=O)N[C@@H](CC(C)C)C(=O)N[C@@H](C(=O)N[C@@H](CC(=O)O)C(=O)N[C@@H](CC(C)C)C(=O)N[C@@H](CC(C)C)C(=O)O)C(C)C (stereo partly drawn) ({Tridecanoyl(3R-OH,11-Me)}-ELL[dV]DLL-OH)
MIC [9]: 4 µg/mL (≈ 3.84 µM) | MIC [10]: 4 µg/mL (≈ 3.84 µM)

SMILES: C/C=C(\NC(=O)[C@@H](NC(=O)[C@H](O)[C@H](O)[C@H](CCCNC(=N)N)NC(=O)[C@@H](C)NC(=O)[C@H](C)[C@H](O)[C@H](C)CC(C)C)[C@@H](C)[C@@H](C)C(N)=O)C(=O)N[C@@H](C(=O)N[C@H](CCCNC(=N)N)C(=O)N[C@@H](CC(C)C)C(=O)N(C)[C@@H](CCC(N)=O)C(=O)N[C@@H](C(=O)N(C)[C@@H](C)C(=O)O)[C@H](OC)c1ccc(O)cc1)[C@@H](C)O
MIC [8]: 0.1 µg/mL (≈ 0.0664 µM)

SMILES: C[C@@H]1CCC/C=C/CCC(=O)C[C@@H](O)C/C=C\C=C\[C@@H](O)C/C=C/C=C\C(=O)O1 [MACROLACTIN F]
MIC [11]: 0.02 µg/mL (≈ 0.0497 µM) | MIC [12]: 0.02 µg/mL (≈ 0.0497 µM) | MIC [13]: 0.02 µg/mL (≈ 0.0497 µM) | MIC [14]: 0.02 µg/mL (≈ 0.0497 µM) | MIC [15]: 0.02 µg/mL (≈ 0.0497 µM) | MIC [16]: 0.02 µg/mL (≈ 0.0497 µM)

SMILES: CCC(C)CCCCCCC[C@@H](O)CC(=O)N[C@@H](CC(C)C)C(=O)N[C@@H](CCC(=O)O)C(=O)N[C@@H](CC(C)C)C(=O)N[C@@H](CC(C)C)C(=O)O (stereo partly drawn) ({Tridecanoyl(3R-OH,11-Me)}-LELL-OH)
MIC [2]: 0.01 µg/mL (≈ 0.014 µM) | MIC [3]: 0.01 µg/mL (≈ 0.014 µM) | MIC [4]: 0.01 µg/mL (≈ 0.014 µM) | MIC [5]: 0.01 µg/mL (≈ 0.014 µM)

SMILES: C[C@@H]1CCCCC/C=C/[C@H](O)C[C@@H](O)C/C=C\C=C\[C@@H](O[C@@H]2O[C@@H](CO)[C@H](O)[C@@H](O)[C@@H]2O)C/C=C/C=C\C(=O)O1
MIC [11]: 0.02 µg/mL (≈ 0.0353 µM) | MIC [12]: 0.02 µg/mL (≈ 0.0353 µM) | MIC [13]: 0.02 µg/mL (≈ 0.0353 µM) | MIC [14]: 0.02 µg/mL (≈ 0.0353 µM) | MIC [15]: 0.02 µg/mL (≈ 0.0353 µM) | MIC [16]: 0.02 µg/mL (≈ 0.0353 µM)

SMILES: CC(C)C[C@H](NC(=O)[C@@H](CCCNC(=N)N)NC(=O)[C@H](NC(=O)[C@H](NC(=O)[C@@H](NC(=O)[C@H](O)[C@H](O)[C@H](CCCNC(=N)N)NC(=O)[C@@H](C)NC(=O)[C@H](C)[C@H](O)[C@H](C)CC(C)C)[C@@H](C)[C@@H](C)C(N)=O)[C@@H](C)O)[C@@H](C)O)C(=O)N(C)[C@@H](CCC(N)=O)C(=O)O
MIC [8]: 0.1 µg/mL (≈ 0.0803 µM)

SMILES: CCC(C)CC(C)CCCCC[C@@H](O)CC(=O)N[C@@H](CC(C)C)C(=O)N[C@@H](CCC(=O)O)C(=O)N[C@@H](CC(C)C)C(=O)N[C@@H](CC(C)C)C(=O)O (some centres undefined) (X1-LELL-OH)
MIC [2]: 0.01 µg/mL (≈ 0.0138 µM) | MIC [3]: 0.01 µg/mL (≈ 0.0138 µM) | MIC [4]: 0.01 µg/mL (≈ 0.0138 µM) | MIC [5]: 0.01 µg/mL (≈ 0.0138 µM)

SMILES: C/C=C(\NC(=O)[C@@H](NC(=O)[C@H](O)[C@H](O)[C@H](CCCNC(=N)N)NC(=O)[C@@H](C)NC(=O)[C@H](C)[C@H](O)[C@H](C)CC(C)C)[C@@H](C)[C@@H](C)C(N)=O)C(=O)N[C@@H](C(=O)N[C@H](CCCNC(=N)N)C(=O)O)[C@@H](C)O
MIC [8]: 0.1 µg/mL (≈ 0.103 µM)

SMILES: CO[C@H]1/C=C/C=C/CCC[C@@H](C)OC(=O)/C=C\C=C\C[C@H](O[C@@H]2O[C@@H](CO)[C@@H](O)[C@H](O)[C@H]2O)/C=C/C=C\C[C@H](O)C1
MIC [11]: 0.02 µg/mL (≈ 0.0346 µM) | MIC [12]: 0.02 µg/mL (≈ 0.0346 µM) | MIC [13]: 0.02 µg/mL (≈ 0.0346 µM) | MIC [14]: 0.02 µg/mL (≈ 0.0346 µM) | MIC [15]: 0.02 µg/mL (≈ 0.0346 µM) | MIC [16]: 0.02 µg/mL (≈ 0.0346 µM)

Continued, values first:

MIC [1]: 0.22 µg/mL (≈ 0.369 µM)
SMILES: C[C@@H]1CCC/C=C/[C@@H]2O[C@](O)(C[C@@H](O)C/C=C\C=C\C(O[C@@H]3O[C@H](CO)[C@@H](O)[C@H](O)[C@H]3O)C/C=C/C=C\C(=O)O1)[C@H]2O (some centres undefined)

MIC [6]: 0.25 µg/mL (≈ 0.64 µM)
SMILES: CS[C@@]12CC3=CC=C[C@H](O)[C@H]3N1C(=O)[C@@H]1C[C@@H]3C(=O)CC[C@@H](O)[C@@H]3N1C2=O

MIC [7]: 4 µg/mL
SMILES: C=C[C@@](C)(CC/C=C(\C)CC[C@]1(C)C(C=O)=CCC[C@H]1C)S(=O)(=O)CCNC(=N)N

IC50 [8]: 4.14 µg/mL (≈ 1.99 µM)
SMILES: CCC/C=C\c1ccccc1/C=C/C(=O)N[C@H]1C(=O)N(C)/C(=C/c2ccc(O)cc2)C(=O)N[C@@H](CC(C)C)C(=O)N[C@H](Cc2ccccc2)C(=O)N[C@@H]([C@H](C)O)C(=O)N[C@@H](CC(N)=O)C(=O)N[C@@H](CO)C(=O)O[C@H](C)[C@@H](NC(=O)C/C=C2/C=CNC[C@H]2/C=C\CCC)C(=O)N(C)/C(=C/c2ccc(O)cc2)C(=O)N[C@@H](CC(C)C)C(=O)N[C@H](Cc2ccccc2)C(=O)N[C@@H]([C@H](C)O)C(=O)N[C@@H](CC(N)=O)C(=O)N[C@@H](CO)C(=O)O[C@@H]1C

MIC [6]: 0.25 µg/mL (≈ 0.55 µM)
SMILES: CS[C@@]12C[C@@H]3C(=O)CC[C@H](O)[C@@H]3N1C(=O)[C@]1(SC)C[C@H]3C(=O)CC[C@@H](O)[C@@H]3N1C2=O

MIC [17]: 1.95 µg/mL (≈ 2.62 µM)
SMILES: C/C(Cl)=C/C=C/C=C/C=C/C=C/C(O)=C1\C(=O)C(CC(N)=O)N([C@@H]2OC[C@@H](O)[C@H](O)[C@H]2O[C@H]2OC[C@H](O[C@H]3O[C@@H](C)[C@H](O)[C@@H]3O)[C@H](O)[C@H]2O)C1=O (some centres undefined)

MIC [8]: 0.79 µg/mL (≈ 1.91 µM)
SMILES: C=C(CC[C@@H](C)[C@H]1CC[C@H]2C3=C(CC[C@]12C)[C@@]1(C)CC[C@H](O)C[C@@H]1C(=O)O3)C(C)C

MIC [7]: 0.5 µg/mL
SMILES: CC1=CCC[C@H](C)[C@@]1(C)CC/C(C)=C/CC/C(C)=C/CS(=O)(=O)CCNC(=N)N

MIC [11]: 0.02 µg/mL (≈ 0.0354 µM) | MIC [12]: 0.02 µg/mL (≈ 0.0354 µM) | MIC [13]: 0.02 µg/mL (≈ 0.0354 µM) | MIC [14]: 0.02 µg/mL (≈ 0.0354 µM) | MIC [15]: 0.02 µg/mL (≈ 0.0354 µM) | MIC [16]: 0.02 µg/mL (≈ 0.0354 µM)
SMILES: C[C@@H]1CCC/C=C/C=C/[C@H](O)C[C@@H](O)C/C=C\C=C\[C@@H](O[C@@H]2O[C@@H](CO)[C@H](O)[C@@H](O)[C@@H]2O)C/C=C/C=C\C(=O)O1
